Columns and labels:
Format in all cases: in vivo
[1] = system: barnyardgrass (Echinochloa crus-galli); assay: Test A postemergence; details: 0 to 100 scale, 0 no effect, 100 complete control, approx. 10 days
Source text: (§1) Seeds of barnyardgrass (Echinochloa crus-galli), large crabgrass (Digitaria sanguinalis), giant foxtail (Setaria faberii), morningglory (Ipomoea spp.), pigweed (Amaranthus retroflexus), velvetleaf (Abutilon theophrasti), wheat (Triticum aestivum) and corn (Zea mays) were planted into a blend of loam soil and sand and treated preemergence with a directed soil spray using test chemicals formulated in a non-phytotoxic solvent mixture which included a surfactant. At the same time these species were also treated with postemergence applications of test compounds formulated in the same manner. Plants ranged in height from 2 to 10 cm and were in the one- to two-leaf stage for the postemergence treatments. Treated plants and untreated controls were maintained in a greenhouse for approximately 10 days, after which time all treated plants were compared to untreated controls and visually evaluated for injury. Plant response ratings, summarized in Table A, are based on a 0 to 100 scale where 0 is no effect and 100 is complete control.

[2] = system: corn (Zea mays); assay: Test A postemergence; details: 0 to 100 scale, 0 no effect, 100 complete control, approx. 10 days
Source text: as §1

[3] = system: giant foxtail (Setaria faberii); assay: Test A postemergence; details: 0 to 100 scale, 0 no effect, 100 complete control, approx. 10 days
Source text: as §1

[4] = system: large crabgrass (Digitaria sanguinalis); assay: Test A postemergence; details: 0 to 100 scale, 0 no effect, 100 complete control, approx. 10 days
Source text: as §1

[5] = system: morningglory (Ipomoea spp.); assay: Test A postemergence; details: 0 to 100 scale, 0 no effect, 100 complete control, approx. 10 days
Source text: as §1

[6] = system: pigweed (Amaranthus retroflexus); assay: Test A postemergence; details: 0 to 100 scale, 0 no effect, 100 complete control, approx. 10 days
Source text: as §1

[7] = system: velvetleaf (Abutilon theophrasti); assay: Test A postemergence; details: 0 to 100 scale, 0 no effect, 100 complete control, approx. 10 days
Source text: as §1

[8] = system: wheat (Triticum aestivum); assay: Test A postemergence; details: 0 to 100 scale, 0 no effect, 100 complete control, approx. 10 days
Source text: as §1

[9] = system: Italian ryegrass (Lolium multiflorum); assay: Test B postemergence; details: scale 0 to 100
Source text: (§2) Seeds of plant species selected from blackgrass (Alopecurus myosuroides), downy bromegrass (Bromus tectorum), green foxtail (Setaria viridis), Italian ryegrass (Lolium multiflorum), wheat (Triticum aestivum), wild oat (Avena fatua), galium (Galium aparine), bermudagrass (Cynodon dactylon), Surinam grass (Brachiaria decumbens), cocklebur (Xanthium strumarium), corn (Zea mays), large crabgrass (Digitaria sanguinalis), woolly cupgrass (Eriochloa villosa), giant foxtail (Setaria faberii), goosegrass (Eleusine indica), johnsongrass (Sorghum halepense), kochia (Kochia scoparia), lambsquarters (Chenopodium album), morningglory (Ipomoea coccinea), yellow nutsedge (Cyperus esculentus), pigweed (Amaranthus retroflexus), ragweed (Ambrosia elatior), soybean (Glycine max), velvetleaf (Abutilon theophrasti), barley (Hordeum vulgare), canarygrass (Phalaris minor), chickweed (Stellaria media), deadnettle (Lamium amplexicaule) and windgrass (Apera spica-venti) were planted in pots containing Redi-Earth® planting medium (Scotts Company, Marysville, Ohio, USA) comprising spaghnum peat moss, vermiculite, wetting agent and starter nutrients and treated postemergence with test compounds formulated in a non-phytotoxic solvent mixture which included a surfactant. Plants ranged in height from 2 to 18 cm (1- to 4-leaf stage).
(§3) Treated plants and controls were maintained in a greenhouse for 13 to 15 days, after which time all species were compared to controls and visually evaluated. Plant response ratings, summarized in Table B, are based on a scale of 0 to 100 where 0 is no effect and 100 is complete control. A dash (-) response means no test result.

[10] = system: barley (Hordeum vulgare); assay: Test B postemergence; details: scale 0 to 100
Source text: as §2, §3

[11] = system: blackgrass (Alopecurus myosuroides); assay: Test B postemergence; details: scale 0 to 100
Source text: as §2, §3

[12] = system: canarygrass (Phalaris minor); assay: Test B postemergence; details: scale 0 to 100
Source text: as §2, §3

[13] = system: galium (Galium aparine); assay: Test B postemergence; details: scale 0 to 100
Source text: as §2, §3

[14] = system: giant foxtail (Setaria faberii); assay: Test B postemergence; details: scale 0 to 100
Source text: as §2, §3

[15] = system: goosegrass (Eleusine indica); assay: Test B postemergence; details: scale 0 to 100
Source text: as §2, §3

[16] = system: green foxtail (Setaria viridis); assay: Test B postemergence; details: scale 0 to 100
Source text: as §2, §3

[17] = system: pigweed (Amaranthus retroflexus); assay: Test B postemergence; details: scale 0 to 100
Source text: as §2, §3

[18] = system: soybean (Glycine max); assay: Test B postemergence; details: scale 0 to 100
Source text: as §2, §3

[19] = system: velvetleaf (Abutilon theophrasti); assay: Test B postemergence; details: scale 0 to 100
Source text: as §2, §3

[20] = system: wild oat (Avena fatua); assay: Test B postemergence; details: scale 0 to 100
Source text: as §2, §3

[21] = system: windgrass (Apera spica-venti); assay: Test B postemergence; details: scale 0 to 100
Source text: as §2, §3

[22] = system: yellow nutsedge (Cyperus esculentus); assay: Test B postemergence; details: scale 0 to 100
Source text: as §2, §3

In the case of `COCCn1c(-c2cccc(F)c2)c(Cl)nc(C(=O)C2=C(O)CCCC2=O)c1=O` [Compound 4, 5-chloro-6-(3-fluorophenyl)-3-[(2-hydroxy-6-oxo-1-cyclohexen-1-yl)carbonyl]-1-(2-methoxyethyl)-2(1H)pyrazinone], the “Plant response rating, Barnyardgrass” value ([1]; 125 g ai/ha) is reported as 60, the “Plant response rating, Barnyardgrass” value ([1]; 500 g ai/ha) is reported as 100 and the “Plant response rating, Corn” value ([2]; 125 g ai/ha) is reported as 0. The “Plant response rating, Corn” value ([2]; 500 g ai/ha) was 40, the “Plant response rating, Foxtail, Giant” value ([3]; 125 g ai/ha) was 30 and the “Plant response rating, Foxtail, Giant” value ([3]; 500 g ai/ha) was 70. For the same molecule, the “Plant response rating, Crabgrass, Large” value ([4]; 125 g ai/ha) was 80, the “Plant response rating, Crabgrass, Large” value ([4]; 500 g ai/ha) was 100 and the “Plant response rating, Morningglory” value ([5]; 125 g ai/ha) was 90. For the same molecule, the “Plant response rating, Morningglory” value ([5]; 500 g ai/ha) was 100, the “Plant response rating, Pigweed” value ([6]; 125 g ai/ha) was 80 and the “Plant response rating, Pigweed” value ([6]; 500 g ai/ha) was 100. The “Plant response rating, Velvetleaf” value ([7]; 125 g ai/ha) was 100, the “Plant response rating, Velvetleaf” value ([7]; 500 g ai/ha) was 100 and the “Plant response rating, Wheat” value ([8]; 125 g ai/ha) was 0. The “Plant response rating, Wheat” value ([8]; 500 g ai/ha) was 10, the “Plant response rating, Ryegrass, Italian” value ([9]; 31 g ai/ha) was 0 and the “Plant response rating, Ryegrass, Italian” value ([9]; 62 g ai/ha) was 0. The “Plant response rating, Ryegrass, Italian” value ([9]; 125 g ai/ha) was 0, the “Plant response rating, Ryegrass, Italian” value ([9]; 250 g ai/ha) was 10 and the “Plant response rating, Barley” value ([10]; 31 g ai/ha) was 0. For the same molecule, the “Plant response rating, Barley” value ([10]; 62 g ai/ha) was 20, the “Plant response rating, Barley” value ([10]; 125 g ai/ha) was 20 and the “Plant response rating, Barley” value ([10]; 250 g ai/ha) was 30. For the same molecule, the “Plant response rating, Blackgrass” value ([11]; 31 g ai/ha) was 5, the “Plant response rating, Blackgrass” value ([11]; 62 g ai/ha) was 5 and the “Plant response rating, Blackgrass” value ([11]; 125 g ai/ha) was 5. The “Plant response rating, Blackgrass” value ([11]; 250 g ai/ha) was 10, the “Plant response rating, Canarygrass” value ([12]; 31 g ai/ha) was 25 and the “Plant response rating, Canarygrass” value ([12]; 62 g ai/ha) was 40. The “Plant response rating, Canarygrass” value ([12]; 125 g ai/ha) was 50, the “Plant response rating, Canarygrass” value ([12]; 250 g ai/ha) was 60 and the “Plant response rating, Galium” value ([13]; 31 g ai/ha) was 50. For the same molecule, the “Plant response rating, Galium” value ([13]; 62 g ai/ha) was 50, the “Plant response rating, Foxtail, Giant” value ([14]; 31 g ai/ha) was 40 and the “Plant response rating, Foxtail, Giant” value ([14]; 62 g ai/ha) was 60. For the same molecule, the “Plant response rating, Foxtail, Giant” value ([14]; 125 g ai/ha) was 70, the “Plant response rating, Foxtail, Giant” value ([14]; 250 g ai/ha) was 75 and the “Plant response rating, Goosegrass” value ([15]; 31 g ai/ha) was 5. For the same molecule, the “Plant response rating, Goosegrass” value ([15]; 62 g ai/ha) was 45, the “Plant response rating, Goosegrass” value ([15]; 125 g ai/ha) was 50 and the “Plant response rating, Goosegrass” value ([15]; 250 g ai/ha) was 65. The “Plant response rating, Foxtail, Green” value ([16]; 31 g ai/ha) was 35, the “Plant response rating, Foxtail, Green” value ([16]; 62 g ai/ha) was 35 and the “Plant response rating, Foxtail, Green” value ([16]; 125 g ai/ha) was 35. The “Plant response rating, Foxtail, Green” value ([16]; 250 g ai/ha) was 70, the “Plant response rating, Pigweed” value ([17]; 31 g ai/ha) was 65 and the “Plant response rating, Pigweed” value ([17]; 62 g ai/ha) was 80. For the same molecule, the “Plant response rating, Pigweed” value ([17]; 125 g ai/ha) was 90, the “Plant response rating, Pigweed” value ([17]; 250 g ai/ha) was 98 and the “Plant response rating, Soybean” value ([18]; 31 g ai/ha) was 55. The “Plant response rating, Soybean” value ([18]; 62 g ai/ha) was 60, the “Plant response rating, Soybean” value ([18]; 125 g ai/ha) was 75 and the “Plant response rating, Soybean” value ([18]; 250 g ai/ha) was 75. For the same molecule, the “Plant response rating, Velvetleaf” value ([19]; 31 g ai/ha) was 50, the “Plant response rating, Velvetleaf” value ([19]; 62 g ai/ha) was 50 and the “Plant response rating, Velvetleaf” value ([19]; 125 g ai/ha) was 60. For the same molecule, the “Plant response rating, Velvetleaf” value ([19]; 250 g ai/ha) was 75, the “Plant response rating, Oat, Wild” value ([20]; 31 g ai/ha) was 5 and the “Plant response rating, Oat, Wild” value ([20]; 62 g ai/ha) was 30. The “Plant response rating, Oat, Wild” value ([20]; 125 g ai/ha) was 30, the “Plant response rating, Oat, Wild” value ([20]; 250 g ai/ha) was 40 and the “Plant response rating, Windgrass” value ([21]; 31 g ai/ha) was 5. For the same molecule, the “Plant response rating, Windgrass” value ([21]; 62 g ai/ha) was 30, the “Plant response rating, Windgrass” value ([21]; 125 g ai/ha) was 40 and the “Plant response rating, Windgrass” value ([21]; 250 g ai/ha) was 65. For the same molecule, the “Plant response rating, Nutsedge, Yellow” value ([22]; 31 g ai/ha) was 5, the “Plant response rating, Nutsedge, Yellow” value ([22]; 62 g ai/ha) was 20 and the “Plant response rating, Nutsedge, Yellow” value ([22]; 125 g ai/ha) was 45. For the same molecule, the “Plant response rating, Nutsedge, Yellow” value ([22]; 250 g ai/ha) was 65.
